Experimental data taken from patent US5132111A (priority 1990, dated 1992).
Non-standard residues stand in square brackets, D forms with d. Residues, ends and D or L forms follow the SMILES beside them. hArg = N=C(N)NCCCC[C@H](N)C(=O)O; Nle = CCCC[C@H](N)C(=O)O

system: cultured rat pituitary cells; type: cell-based

Compound | secretion of ACTH | secretion of β-endorphin (β-END-LI)
CCCC[C@H](NC(=O)[C@@H](NC(=O)[C@H](CC(C)C)NC(=O)[C@H](CC(=O)O)NC(=O)[C@H](CC(C)C)NC(=O)[C@H](CO)NC(=O)[C@@H](NC(=O)[C@@H]1CCCN1C(=O)[C@@H]1CCCN1C(=O)[C@@H](N)CCC(=O)O)[C@@H](C)CC)[C@@H](C)O)C(=O)N[C@@H](Cc1c[nH]cn1)C(=O)N[C@@H](CC(C)C)C(=O)N[C@@H](CC(C)C)C(=O)N[C@@H](CCCNC(=N)N)C(=O)N[C@@H](CCC(=O)O)C(=O)N[C@H](C(=O)N[C@@H](CC(C)C)C(=O)N[C@@H](CCC(=O)O)C(=O)N[C@@H](CCSC)C(=O)N[C@@H](C)C(=O)N[C@@H](CCCNC(=N)N)C(=O)N[C@@H](C)C(=O)N[C@@H](CCC(=O)O)C(=O)N[C@@H](CCC(N)=O)C(=O)N[C@@H](CC(C)C)C(=O)N[C@@H](C)C(=O)N[C@@H](CCC(=O)O)C(=O)N[C@@H](CCC(N)=O)C(=O)N[C@@H](C)C(=O)N[C@@H](Cc1c[nH]cn1)C(=O)N[C@@H](CO)C(=O)N[C@@H](CC(N)=O)C(=O)N[C@@H](CCCNC(=N)N)C(=O)N[C@@H](CCCNC(=N)N)C(=O)N[C@@H](CC(C)C)C(=O)N[C@@H](CCSC)C(=O)N[C@@H](CCC(=O)O)C(=O)N[C@H](C(=O)N[C@H](C(N)=O)[C@@H](C)CC)[C@@H](C)CC)C(C)C (H-EPPISLDLT[Nle]HLLREVLEMARAEQLAEQAHSNRRLMEII-NH2) | stimulates | stimulates
CCCC[C@H](NC(=O)[C@H](CCC(=O)O)NC(=O)[C@H](CCCNC(=N)N)NC(=O)[C@H](CC(C)C)NC(=O)[C@H](CC(C)C)NC(=O)[C@H](Cc1c[nH]cn1)NC(=O)[C@H](Cc1ccccc1)NC(=O)[C@@H](NC(=O)[C@H](CC(C)C)NC(=O)[C@H](CC(=O)O)NC(=O)[C@H](CC(C)C)NC(=O)[C@H](CO)NC(=O)[C@@H](NC(=O)[C@@H]1CCCN1C(=O)[C@@H]1CCCN1C(=O)[C@H](CCC(=O)O)NC(=O)[C@@H](N)CCC(N)=O)[C@@H](C)CC)[C@@H](C)O)C(=O)N[C@@H](CC(C)C)C(=O)N[C@@H](CCC(=O)O)C(=O)N[C@@H](CCSC)C(=O)N[C@H](C(=O)N[C@@H](CCCNC(=N)N)C(=O)N[C@@H](C)C(=O)N[C@@H](CC(=O)O)C(=O)N[C@@H](CCC(N)=O)C(=O)N[C@@H](CC(C)C)C(=O)N[C@@H](C)C(=O)N[C@@H](CCC(N)=O)C(=O)N[C@@H](CCC(N)=O)C(=O)N[C@@H](C)C(=O)N[C@@H](Cc1c[nH]cn1)C(=O)N[C@@H](CO)C(=O)N[C@@H](CC(N)=O)C(=O)N[C@@H](CCCNC(=N)N)C(=O)N[C@@H](CCCNC(=N)N)C(=O)N[C@@H](Cc1ccc(O)cc1)C(=O)N[C@@H](CC(C)C)C(=O)N[C@@H](CC(=O)O)C(=O)N[C@@H](CCC(=O)O)C(=O)N[C@@H](C)C(N)=O)[C@@H](C)O (H-QEPPISLDLTFHLLRE[Nle]LEMTRADQLAQQAHSNRRYLDEA-NH2) | stimulates | stimulates
CCCC[C@H](NC(=O)[C@H](CCC(=O)O)NC(=O)[C@H](CC(C)C)NC(=O)[C@H](CCCC)NC(=O)[C@H](CCC(=O)O)NC(=O)[C@H](CCCNC(=N)N)NC(=O)[C@H](CC(C)C)NC(=O)[C@H](CC(C)C)NC(=O)[C@H](Cc1c[nH]cn1)NC(=O)[C@H](Cc1ccccc1)NC(=O)[C@@H](NC(=O)[C@H](CC(C)C)NC(=O)[C@H](CC(=O)O)NC(=O)[C@H](CC(C)C)NC(=O)[C@H](CO)NC(=O)[C@@H](NC(=O)[C@@H]1CCCN1C(=O)[C@H]1CCCN1)[C@@H](C)CC)[C@@H](C)O)C(=O)N[C@@H](C)C(=O)N[C@@H](CCCNC(=N)N)C(=O)N[C@@H](C)C(=O)N[C@@H](CCC(=O)O)C(=O)N[C@@H](CCC(N)=O)C(=O)N[C@@H](CCC(=O)O)C(=O)N[C@@H](C)C(=O)N[C@@H](CCC(=O)O)C(=O)N[C@@H](CCC(N)=O)C(=O)N[C@@H](C)C(=O)N[C@@H](C)C(=O)N[C@@H](CC(C)C)C(=O)N[C@@H](CC(N)=O)C(=O)N[C@@H](CCCNC(=N)N)C(=O)N[C@@H](CC(C)C)C(=O)N[C@@H](CC(C)C)C(=O)N[C@@H](CC(C)C)C(=O)N[C@@H](CCC(=O)O)C(=O)N[C@@H](CCC(=O)O)C(=O)N[C@@H](C)C(N)=O [[D-Pro^4, Nle^18,21]-AAHC(4-41)] (H-[dP]PISLDLTFHLLRE[Nle]LE[Nle]ARAEQEAEQAALNRLLLEEA-NH2) | stimulates | stimulates
CCCC[C@H](NC(=O)[C@H](CCC(=O)O)NC(=O)[C@H](CC(C)C)NC(=O)[C@H](CCCC)NC(=O)[C@H](CCC(=O)O)NC(=O)[C@H](CCCNC(=N)N)NC(=O)[C@H](CC(C)C)NC(=O)[C@H](CC(C)C)NC(=O)[C@H](Cc1c[nH]cn1)NC(=O)[C@H](Cc1ccccc1)NC(=O)[C@@H](NC(=O)[C@H](CC(C)C)NC(=O)[C@H](CC(=O)O)NC(=O)[C@H](CC(C)C)NC(=O)[C@H](CO)NC(=O)[C@@H](NC(=O)[C@@H]1CCCN1C(=O)[C@H]1CCCN1C(=O)[C@H](N)Cc1ccc(O)cc1)[C@@H](C)CC)[C@@H](C)O)C(=O)N[C@@H](C)C(=O)N[C@@H](CCCNC(=N)N)C(=O)N[C@@H](C)C(=O)N[C@@H](CCC(=O)O)C(=O)N[C@@H](CCC(N)=O)C(=O)N[C@@H](CCC(=O)O)C(=O)N[C@@H](C)C(=O)N[C@@H](CCC(=O)O)C(=O)N[C@@H](CCC(N)=O)C(=O)N[C@@H](C)C(=O)N[C@@H](C)C(=O)N[C@@H](CC(C)C)C(=O)N[C@@H](CC(N)=O)C(=O)N[C@@H](CCCNC(=N)N)C(=O)N[C@@H](CC(C)C)C(=O)N[C@@H](CC(C)C)C(=O)N[C@@H](CC(C)C)C(=O)N[C@@H](CCC(=O)O)C(=O)N[C@@H](CCC(=O)O)C(=O)N[C@@H](C)C(N)=O [[D-Tyr^3, D-Pro^4, Nle^18,21]-AHC(3-41)] (H-[dY][dP]PISLDLTFHLLRE[Nle]LE[Nle]ARAEQEAEQAALNRLLLEEA-NH2) | stimulates | stimulates
CCCC[C@H](NC(=O)[C@H](CCC(=O)O)NC(=O)[C@H](CC(C)C)NC(=O)[C@H](CCCC)NC(=O)[C@H](CCC(=O)O)NC(=O)[C@H](CCCNC(=N)N)NC(=O)[C@H](CC(C)C)NC(=O)[C@H](CC(C)C)NC(=O)[C@H](Cc1c[nH]cn1)NC(=O)[C@H](Cc1ccccc1)NC(=O)[C@@H](NC(=O)[C@H](CC(C)C)NC(=O)[C@H](CC(=O)O)NC(=O)[C@H](CC(C)C)NC(=O)[C@H](CO)NC(=O)[C@@H](NC(=O)[C@@H]1CCCN1C(=O)[C@@H]1CCCN1C(=O)[C@H](N)Cc1ccc(O)cc1)[C@@H](C)CC)[C@@H](C)O)C(=O)N[C@@H](C)C(=O)N[C@@H](CCCNC(=N)N)C(=O)N[C@@H](C)C(=O)N[C@@H](CCC(=O)O)C(=O)N[C@@H](CCC(N)=O)C(=O)N[C@@H](CCC(=O)O)C(=O)N[C@@H](C)C(=O)N[C@@H](CCC(=O)O)C(=O)N[C@@H](CCC(N)=O)C(=O)N[C@@H](C)C(=O)N[C@@H](C)C(=O)N[C@@H](CC(C)C)C(=O)N[C@@H](CC(N)=O)C(=O)N[C@@H](CCCNC(=N)N)C(=O)N[C@@H](CC(C)C)C(=O)N[C@@H](CC(C)C)C(=O)N[C@@H](CC(C)C)C(=O)N[C@@H](CCC(=O)O)C(=O)N[C@@H](CCC(=O)O)C(=O)N[C@@H](C)C(N)=O [[D-Tyr^3, Nle^18,21]-AAHC(3-41)] (H-[dY]PPISLDLTFHLLRE[Nle]LE[Nle]ARAEQEAEQAALNRLLLEEA-NH2) | stimulates | stimulates
CC[C@H](C)[C@H](NC(=O)[C@@H]1CCCN1C(=O)[C@@H]1CCCN1)C(=O)N[C@@H](CO)C(=O)N[C@@H](CC(C)C)C(=O)N[C@@H](CC(=O)O)C(=O)N[C@@H](CC(C)C)C(=O)N[C@H](C(=O)N[C@@H](CC(C)C)C(=O)N[C@@H](Cc1c[nH]cn1)C(=O)N[C@@H](CC(C)C)C(=O)N[C@@H](CC(C)C)C(=O)N[C@@H](CCCNC(=N)N)C(=O)N[C@@H](CCC(=O)O)C(=O)N[C@@H](CCSC)C(=O)N[C@@H](CC(C)C)C(=O)N[C@@H](CCC(=O)O)C(=O)N[C@@H](CCSC)C(=O)N[C@@H](CCC(=O)O)C(=O)N[C@@H](CCCCNC(=N)N)C(=O)N[C@@H](C)C(=O)N[C@@H](CCC(=O)O)C(=O)N[C@@H](CCC(N)=O)C(=O)N[C@@H](CCC(=O)O)C(=O)N[C@@H](C)C(=O)N[C@@H](CCC(=O)O)C(=O)N[C@@H](CCC(N)=O)C(=O)N[C@@H](C)C(=O)N[C@@H](C)C(=O)N[C@@H](CC(C)C)C(=O)N[C@@H](CC(N)=O)C(=O)N[C@@H](CCCNC(=N)N)C(=O)N[C@@H](CCCCNC(=N)N)C(=O)N[C@@H](CC(C)C)C(=O)N[C@@H](CC(C)C)C(=O)N[C@@H](CCC(=O)O)C(=O)N[C@@H](CCC(=O)O)C(=O)N[C@@H](C)C(N)=O)[C@@H](C)O [[Glu^22, Leu^12, Har^23,36]-AHC(4-41)] (H-PPISLDLTLHLLREMLEME[hArg]AEQEAEQAALNR[hArg]LLEEA-NH2) | stimulates | stimulates
CCCC[C@H](NC(=O)[C@H](CCC(=O)O)NC(=O)[C@H](CC(C)C)NC(=O)[C@H](CCCC)NC(=O)[C@H](CCC(=O)O)NC(=O)[C@H](CCCNC(=N)N)NC(=O)[C@H](CC(C)C)NC(=O)[C@H](CC(C)C)NC(=O)[C@H](Cc1c[nH]cn1)NC(=O)[C@H](Cc1ccccc1)NC(=O)[C@@H](NC(=O)[C@H](CC(C)C)NC(=O)[C@H](CC(=O)O)NC(=O)[C@H](CC(C)C)NC(=O)[C@H](CO)NC(=O)[C@@H](N)[C@@H](C)CC)[C@@H](C)O)C(=O)N[C@@H](C)C(=O)N[C@@H](CCCNC(=N)N)C(=O)N[C@@H](C)C(=O)N[C@@H](CCC(=O)O)C(=O)N[C@@H](CCC(N)=O)C(=O)N[C@@H](CCC(=O)O)C(=O)N[C@@H](C)C(=O)N[C@@H](CCC(=O)O)C(=O)N[C@@H](CCC(N)=O)C(=O)N[C@@H](C)C(=O)N[C@@H](C)C(=O)N[C@@H](CC(C)C)C(=O)N[C@@H](CC(N)=O)C(=O)N[C@@H](CCCNC(=N)N)C(=O)N[C@@H](CCCNC(=N)N)C(=O)N[C@@H](CC(C)C)C(=O)N[C@@H](CC(C)C)C(=O)N[C@@H](CCC(=O)O)C(=O)N[C@@H](CCC(=O)O)C(=O)N[C@@H](C)C(N)=O [[Nle^18,21, Arg^36]-AAHC(6-41)] (H-ISLDLTFHLLRE[Nle]LE[Nle]ARAEQEAEQAALNRRLLEEA-NH2) | stimulates | stimulates
